Earlier results in patent publication US6346264B1, “Supplement for restoring growth hormone levels” (International Health Products and Services Ltd., priority 1999, dated 2002).
Read-outs that look alike come from different tables or passages of the source.

How the values were obtained:
hGH release = conditions: low doses in the region of 200 mg (Matteini)
[1] = 4 months, deficient adults
[2] = 6 months, growth hormone deficient patients
[3] = after six months of usage, without exercise
[4] = 202 patients, age 39-74, hGH injection

Row | Compound | hGH release (hGH release) | IGF-1 levels [1] | fat [1] | muscle thickness [1] | renal plasma flow and glomerular filtration rates [1] | Insulin-like Growth Factor 1 (IGF-1) [2] | fat [2] | lean body mass [2] | metabolic rate [2] | plasma cholesterol [2] | average increase in lean muscle mass [3] [%] | loss of fat [3] [%] | increase in healing capacity [4] [%] | individuals describing improvement in duration of penile erection [4] [%] | individuals describing increase and improvement in sexual potency and frequency of sexual relations [4] [%] | individuals with improved energy levels [4] [%] | individuals with improved muscle strength [4] [%] | IGF-1 levels (high frequency-low dose injections)
1 | N=C(N)NCCC[C@H](N)C(=O)O [arginine] | can elevate hGH release | – | – | – | – | – | – | – | – | – | – | – | – | – | – | – | – | –
2 | hGH: human growth hormone, medical name Somatotropin, produced in the anterior pituitary gland; available as injectable bio-synthetic product | – | normalized | reduced | increased | raised from subnormal levels to levels comparable for their age | increase | reduction | increase | increased | lowered | 8 | 14.4 | 71 | 62 | 75 | 84 | 88 | elevated
